Data taken from PubChem BioAssay AID330 (DTP/NCI, 2004).
Toxic doses and inconclusive results are not listed. Rule for the calls: active = survival T/C of 150% or more; inactive = T/C below 125% in these data.

Tested on: P388 leukemia ip, CD2F1 mice, survival T/C
Test: NCI In Vivo Anticancer Drug Screen. Data for tumor model P388 Leukemia (intraperitoneal) in CD2F1 (CDF1) mice
Settings: endpoint: median survival time, higher = longer survival
Procedure, shortened: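 Mice carrying the transplanted tumor received test compound or vehicle. Survival was recorded in each group, and the value is the treated-group measurement divided by that of the vehicle-treated control group.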

[1] = dose: 25.0 mg/kg/injection, schedule: Q01DX009 (ip), vehicle: saline with Tween-80
[2] = dose: 50.0 mg/kg/injection, schedule: Q01DX009 (ip), vehicle: saline with Tween-80
[3] = dose: 50.0 mg/kg/injection, schedule: Q04DX003 (ip), vehicle: saline with Tween-80
[4] = dose: 100.0 mg/kg/injection, schedule: Q01DX009 (ip), vehicle: saline with Tween-80
[5] = dose: 100.0 mg/kg/injection, schedule: Q04DX003 (ip), vehicle: saline with Tween-80
[6] = dose: 100.0 mg/kg/injection, schedule: Q01DX005 (ip), vehicle: saline with Tween-80
[7] = dose: 200.0 mg/kg/injection, schedule: Q01DX005 (ip), vehicle: saline with Tween-80
[8] = dose: 50.0 mg/kg/injection, schedule: Q01DX005 (ip), vehicle: saline
[9] = dose: 100.0 mg/kg/injection, schedule: Q01DX005 (ip), vehicle: saline
[10] = dose: 200.0 mg/kg/injection, schedule: Q01DX005 (ip), vehicle: saline
[11] = dose: 10.0 mg/kg/injection, schedule: Q01DX009 (ip), vehicle: saline
[12] = dose: 20.0 mg/kg/injection, schedule: Q01DX009 (ip), vehicle: saline
[13] = dose: 40.0 mg/kg/injection, schedule: Q01DX009 (ip), vehicle: saline
[14] = dose: 60.0 mg/kg/injection, schedule: Q01DX005 (ip), vehicle: saline with Tween-80
[15] = dose: 120.0 mg/kg/injection, schedule: Q01DX005 (ip), vehicle: saline with Tween-80
[16] = dose: 240.0 mg/kg/injection, schedule: Q01DX005 (ip), vehicle: saline with Tween-80

Measured: T/C

Cc1ccccc1S(=O)(=O)F
inactive: [1] 100 % of control | dose: 25.0 mg/kg/injection, schedule: Q04DX003 (ip), vehicle: saline with Tween-80 100 % of control | [2] 100 % of control | [3] 100 % of control | [4] 109 % of control | [5] 100 % of control

COc1c(Cc2ccccc2O)c(O)cc(O)c1C(=O)CCc1ccccc1
inactive: dose: 0.25 mg/kg/injection, schedule: Q01DX009 (ip), vehicle: Klucel (hydroxypropylcellulose) (HPC) 100 % of control | dose: 0.5 mg/kg/injection, schedule: Q01DX009 (ip), vehicle: Klucel (hydroxypropylcellulose) (HPC) 101 % of control | dose: 1.0 mg/kg/injection, schedule: Q01DX009 (ip), vehicle: Klucel (hydroxypropylcellulose) (HPC) 107 % of control | dose: 2.0 mg/kg/injection, schedule: Q01DX009 (ip), vehicle: Klucel (hydroxypropylcellulose) (HPC) 113 % of control | dose: 4.0 mg/kg/injection, schedule: Q01DX009 (ip), vehicle: Klucel (hydroxypropylcellulose) (HPC) 104 % of control | dose: 8.0 mg/kg/injection, schedule: Q01DX009 (ip), vehicle: Klucel (hydroxypropylcellulose) (HPC) 100 % of control | dose: 16.0 mg/kg/injection, schedule: Q01DX009 (ip), vehicle: Klucel (hydroxypropylcellulose) (HPC) 96 % of control | dose: 32.0 mg/kg/injection, schedule: Q01DX009 (ip), vehicle: Klucel (hydroxypropylcellulose) (HPC) 100 % of control

COc1ccc(Cc2cc3c(cc2OCC(=O)Nc2ccccn2)OCO3)cc1
inactive: dose: 6.25 mg/kg/injection, schedule: Q01DX005 (ip), vehicle: saline with Tween-80 92 % of control | dose: 12.5 mg/kg/injection, schedule: Q01DX005 (ip), vehicle: saline with Tween-80 90 % of control | dose: 25.0 mg/kg/injection, schedule: Q01DX005 (ip), vehicle: saline with Tween-80 86 % of control | [6] 90 % of control | [7] 90 % of control

CC1=NNC(=O)C1N=Nc1c(C)n(C)n(-c2ccccc2)c1=O (configuration not stated)
inactive: dose: 50.0 mg/kg/injection, schedule: Q01DX005 (ip), vehicle: saline with Tween-80 100 % of control | [6] 99 % of control | [7] 100 % of control

COc1ccc(/C=C2\C=C3OCOC3=CC2=O)cc1
inactive: dose: 2.5 mg/kg/injection, schedule: Q01DX009 (ip), vehicle: saline with Tween-80 100 % of control | dose: 5.0 mg/kg/injection, schedule: Q01DX009 (ip), vehicle: saline with Tween-80 100 % of control | dose: 10.0 mg/kg/injection, schedule: Q01DX009 (ip), vehicle: saline with Tween-80 100 % of control

CCC(C)c1ccc(S(=O)(=O)Nc2cc(Cl)c([N+](=O)[O-])cc2O)cc1 (configuration not stated)
inactive: dose: 50.0 mg/kg/injection, schedule: Q01DX009 (ip), vehicle: Klucel (hydroxypropylcellulose) (HPC) 104 % of control | dose: 100.0 mg/kg/injection, schedule: Q01DX009 (ip), vehicle: Klucel (hydroxypropylcellulose) (HPC) 100 % of control | dose: 200.0 mg/kg/injection, schedule: Q01DX009 (ip), vehicle: Klucel (hydroxypropylcellulose) (HPC) 102 % of control

O=[N+]([O-])CC(OCCCCCCO)C(Cl)(Cl)Cl (configuration not stated)
inactive: [2] 100 % of control | [4] 95 % of control

CCCCOC(=O)/C=C(\Br)C(=O)OCCCC
inactive: [2] 114 % of control | [4] 124 % of control

CC(=O)OCC(O)CS(=O)c1ccc(C)cc1 (configuration not stated)
inactive: [1] 100 % of control | [2] 99 % of control | [4] 98 % of control

CC(=O)CC(C)(C)C(C#N)c1ccccc1 (configuration not stated)
inactive: dose: 100.0 mg/kg/injection, schedule: Q04DX003 (ip), vehicle: Klucel (hydroxypropylcellulose) (HPC) 99 % of control | dose: 200.0 mg/kg/injection, schedule: Q04DX003 (ip), vehicle: Klucel (hydroxypropylcellulose) (HPC) 115 % of control | dose: 400.0 mg/kg/injection, schedule: Q04DX003 (ip), vehicle: Klucel (hydroxypropylcellulose) (HPC) 98 % of control

O=C1C2Nc3ccccc3N=C2OC1c1cccc([N+](=O)[O-])c1 (configuration not stated)
inactive: dose: 60.0 mg/kg/injection, schedule: Q01DX005 (ip), vehicle: Klucel + Tween-80 107 % of control | dose: 120.0 mg/kg/injection, schedule: Q01DX005 (ip), vehicle: Klucel + Tween-80 97 % of control | dose: 240.0 mg/kg/injection, schedule: Q01DX005 (ip), vehicle: Klucel + Tween-80 91 % of control

CCOC(=O)NC(=S)Nc1ncn[nH]1
inactive: [3] 100 % of control | [5] 95 % of control | dose: 200.0 mg/kg/injection, schedule: Q04DX003 (ip), vehicle: saline with Tween-80 100 % of control | dose: 400.0 mg/kg/injection, schedule: Q04DX003 (ip), vehicle: saline with Tween-80 99 % of control

O=c1[nH]c(=O)n(C2OC(CO)C(O)C2O)cc1Br (configuration not stated)
inactive: [8] 97 % of control | [9] 101 % of control | [10] 102 % of control

Nc1ncccc1O
inactive: dose: 2.5 mg/kg/injection, schedule: Q01DX009 (ip), vehicle: saline 104 % of control | dose: 5.0 mg/kg/injection, schedule: Q01DX009 (ip), vehicle: saline 97 % of control | [11] 96 % of control | [12] 110 % of control | [13] 107 % of control

CCCCCCn1c(=O)cc2n(c1=O)CCC2
inactive: [14] 103 % of control | [15] 101 % of control

CCc1cc(-n2c3c(CC)c(=O)c(CC)cc-3nc3ccccc32)cc(CC)c1O
inactive: dose: 25.0 mg/kg/injection, schedule: Q01DX009 (ip), vehicle: saline 98 % of control | dose: 50.0 mg/kg/injection, schedule: Q01DX009 (ip), vehicle: saline 109 % of control | dose: 100.0 mg/kg/injection, schedule: Q01DX009 (ip), vehicle: saline 105 % of control

COc1ccc2c(c1OC)C(=O)O[C@@H]2[C@H]1c2cc3c(cc2CCN1C)OCO3
inactive: [11] 108 % of control | [12] 114 % of control | [13] 108 % of control | dose: 80.0 mg/kg/injection, schedule: Q01DX009 (ip), vehicle: saline 99 % of control

CC(C)NC(=O)N1C2C3CCC(C)(OC3(C)C)C21 (configuration not stated)
inactive: [8] 108 % of control | [9] 101 % of control | [10] 101 % of control

Cc1c([N+](=O)[O-])c(=O)oc2c(C)c3occc(=O)c3cc12
inactive: dose: 100.0 mg/kg/injection, schedule: Q01DX001 (ip), vehicle: saline with Tween-80 89 % of control | dose: 200.0 mg/kg/injection, schedule: Q01DX001 (ip), vehicle: saline with Tween-80 90 % of control | dose: 400.0 mg/kg/injection, schedule: Q01DX001 (ip), vehicle: saline with Tween-80 86 % of control

O=C(c1ccccc1)C1C(=O)c2cc3c(cc2C1=O)C(=O)C(C(=O)c1ccccc1)C3=O
inactive: dose: 25.0 mg/kg/injection, schedule: Q04DX002 (ip), vehicle: saline with Tween-80 99 % of control | dose: 50.0 mg/kg/injection, schedule: Q04DX002 (ip), vehicle: saline with Tween-80 95 % of control | dose: 100.0 mg/kg/injection, schedule: Q04DX002 (ip), vehicle: saline with Tween-80 95 % of control

O=C(O)CCO/N=C1/Oc2ccc(Cl)cc2C1=O
inactive: [14] 103 % of control | [15] 102 % of control | [16] 101 % of control

CC1OC(Oc2c(-c3ccc(O)c(O)c3O)oc3cc(O)ccc3c2=O)C(O)C(O)C1O (configuration not stated)
inactive: [14] 102 % of control | [15] 98 % of control | [16] 99 % of control
